Experiments:
[1] = Emulsion zeta potential by electrophoretic mobility; format: physicochemical; settings: 25° C., dilution 1:250
Experimental: Zeta potential can be measured by a zetameter such as Zetasizer 2000, Malvern Instruments Ltd, UK. The zeta potential of the emulsion droplet surface is determined by electrophoretic mobility. Measurements are performed at 25° C. following dilution at 1:250 of the emulsion in double distilled water. The electrophoretic mobility is converted into zeta potential values through the Smoluchowsky equation.

[2] = Emulsion droplet size by dynamic light scattering; format: physicochemical; settings: 25° C., diluted in double distilled water
Experimental: Measurements are performed at 25° C. following dilution of the emulsion in double distilled water.

[3] = test system: white male New Zealand rabbits; test: Ocular irritation, adaptation of the Draize test; format: in vivo; settings: BAK C16 within an emulsion; 50 μL instilled, rabbit eye; FIG. 2
Experimental: The ocular irritation of the emulsions and solutions has been evaluated using an adaptation of the Draize test on white male New Zealand rabbits (2.75-3.00 kg). Fifty μL of emulsion or solution were instilled unilaterally and 50 μL of NaCl 0.9% in the other eye of the three rabbits per group. General aspect assessment of the animals was performed (behavior, blinking, itching of the eye with forelegs) as well as eye tissue evaluation (conjunctiva, cornea, iris) after instillation, 1, 24, 48 and 72 hours. Observations were scored according to the Draize test protocol.

CCCCCCCCCCCC[N+](C)(C)C.[Br-] [ATAB C12, lauryl trimethyl ammonium bromide]
Emulsions zeta potential ([1]; emulsion containing 0.0025% QA): −35.5 mV | Emulsions zeta potential ([1]; emulsion containing 0.005% QA): −14.6 mV

CCCCCCCCCCCCCCCC[N+](C)(C)C.[Br-] [ATAB C16, cetyl trimethyl ammonium bromide]
Emulsion droplet size ([2]; emulsion containing 0.0025% QA): 222 nm | Emulsion droplet size ([2]; emulsion containing 0.005% QA): 212 nm | Emulsions zeta potential ([1]; emulsion containing 0.0025% QA): +11.9 mV | Emulsions zeta potential ([1]; emulsion containing 0.005% QA): +20.2 mV

CCCCCCCCCCCC[N+](C)(C)Cc1ccccc1 [BAK C12, benzododecinium chloride]
Emulsion droplet size ([2]; emulsion containing 0.005% QA): 198 nm | Emulsion droplet size ([2]; emulsion containing 0.01% QA): 263 nm | Emulsion droplet size ([2]; emulsion containing 0.02% QA): 230 nm | Emulsion droplet size ([2]; emulsion containing 0.04% QA): 225 nm | Emulsion droplet size ([2]; emulsion containing 0.1% QA): 180 nm | Emulsions zeta potential ([1]; emulsion containing 0.005% QA): −6.9 mV | Emulsions zeta potential ([1]; emulsion containing 0.01% QA): +4.2 mV | Emulsions zeta potential ([1]; emulsion containing 0.02% QA): +7.9 mV | Emulsions zeta potential ([1]; emulsion containing 0.04% QA): +16.8 mV | Emulsions zeta potential ([1]; emulsion containing 0.1% QA): +23.8 mV

CCCCCCCCCCCCCC[N+](C)(C)Cc1ccccc1 [BAK C14, myristalkonium chloride]
Emulsion droplet size ([2]; emulsion containing 0.0025% QA): 204 nm | Emulsion droplet size ([2]; emulsion containing 0.005% QA): 190 nm | Emulsion droplet size ([2]; emulsion containing 0.01% QA): 190 nm | Emulsion droplet size ([2]; emulsion containing 0.02% QA): 155 nm | Emulsion droplet size ([2]; emulsion containing 0.04% QA): 238 nm | Emulsion droplet size ([2]; emulsion containing 0.1% QA): 185 nm | Emulsions zeta potential ([1]; emulsion containing 0.0025% QA): +11.4 mV | Emulsions zeta potential ([1]; emulsion containing 0.005% QA): +19.6 mV | Emulsions zeta potential ([1]; emulsion containing 0.01% QA): +22.9 mV | Emulsions zeta potential ([1]; emulsion containing 0.02% QA): +28.4 mV | Emulsions zeta potential ([1]; emulsion containing 0.04% QA): +39.3 mV | Emulsions zeta potential ([1]; emulsion containing 0.1% QA): +44.5 mV

CCCCCCCCCCCCCCCC[N+](C)(C)Cc1ccccc1 [BAK C16, cetylkonium chloride]
Emulsion droplet size ([2]; emulsion containing 0.001% QA): 220 nm | Emulsion droplet size ([2]; emulsion containing 0.0025% QA): 210 nm | Emulsion droplet size ([2]; emulsion containing 0.005% QA): 148 nm | Emulsion droplet size ([2]; emulsion containing 0.01% QA): 180 nm | Emulsion droplet size ([2]; emulsion containing 0.02% QA): 155 nm | Emulsion droplet size ([2]; emulsion containing 0.04% QA): 188 nm | Emulsion droplet size ([2]; emulsion containing 0.1% QA): 183 nm | Emulsions zeta potential ([1]; emulsion containing 0.001% QA): +16.2 mV | Emulsions zeta potential ([1]; emulsion containing 0.0025% QA): +24.4 mV | Emulsions zeta potential ([1]; emulsion containing 0.005% QA): +31.4 mV | Emulsions zeta potential ([1]; emulsion containing 0.01% QA): +36.7 mV | Emulsions zeta potential ([1]; emulsion containing 0.02% QA): +44.1 mV | Emulsions zeta potential ([1]; emulsion containing 0.04% QA): +47.2 mV | Emulsions zeta potential ([1]; emulsion containing 0.1% QA): +48.9 mV | Ocular irritation (toxicity), Draize score [3]: unexpected decrease of its toxicity

From patent publication US9132071B2, “Compositions containing quaternary ammonium compounds” (SANTEN SAS, priority 2006, dated 2015)
